Measured values as given in patent US20230391760A1, “HETEROCYCLIC GLP-1 AGONISTS” (Gasherbrum Bio, Inc., priority 2020, published 2023).
pEC50: −log10 of the molar value.

Biological target: GLP-1 Receptor (Homo sapiens, UniProt P43220)
Assay: GLP-1R agonist cAMP stimulation assay (HEK293/GLP1R/CRE-LUC cells, cAMP dynamic 2 Kit)
Type: cell-based
Settings: HEK293/CRE-Luc cell line stably expressing the GLP-1 Receptor, 30 min at 37° C.
Method: Activation of GLP-1 receptor is known to stimulate cyclic AMP (cAMP) production in cells which indicates primary coupling to the Gαs subunit of the G protein heterotrimeric complex. […] To optimize functional activity directed toward Gαs coupling, a HEK293/CRE-Luc cell line developed by HDB stably expressing the GLP-1 Receptor was used. 200×concentration of compound working solutions were prepared (Agilent Technologies Bravo) with 1/2 log serial dilution in 384-well Echo LDV plate (Labcyte, Cat #LP-0200). 50 nL/well 200× concentration of compound working solutions were moved to 384-well white low volume plate (Greiner,Cat #784075) using Labcyte ECHO550. 1×10^5 cells/mL HEK293/GLP1R/CRE-LUC(HD Biosciences) cell suspensions prepared with assay buffer[DPBS containing 0.5 mM IBMX(Sigma, Cat #15879) and 0.1% BSA (GENVIEW, Cat #FA016-100 g)], 10 uL cell suspensions were added to each well of previous generated assay plate which already contains 50 nl compound at 200×concentration using ThermoFisher Multidrop Combi (1000 cells/well). Seal the plate and incubate at 37° C. with 5% CO2 for 30 min. After incubation the cAMP assay signal was generated using cAMP dynamic 2 Kit (Cisbio). 5 μL cAMP-d2 working solution was added to each well, followed with 5 μL Anti-cAMP antibody-cryptate working solution added to each well using ThermoFisher Multidrop Combi. Incubate at room temperature for 1 hour protected from light.

GLP-1 Receptor, sequence (P43220 24-463, species assumed): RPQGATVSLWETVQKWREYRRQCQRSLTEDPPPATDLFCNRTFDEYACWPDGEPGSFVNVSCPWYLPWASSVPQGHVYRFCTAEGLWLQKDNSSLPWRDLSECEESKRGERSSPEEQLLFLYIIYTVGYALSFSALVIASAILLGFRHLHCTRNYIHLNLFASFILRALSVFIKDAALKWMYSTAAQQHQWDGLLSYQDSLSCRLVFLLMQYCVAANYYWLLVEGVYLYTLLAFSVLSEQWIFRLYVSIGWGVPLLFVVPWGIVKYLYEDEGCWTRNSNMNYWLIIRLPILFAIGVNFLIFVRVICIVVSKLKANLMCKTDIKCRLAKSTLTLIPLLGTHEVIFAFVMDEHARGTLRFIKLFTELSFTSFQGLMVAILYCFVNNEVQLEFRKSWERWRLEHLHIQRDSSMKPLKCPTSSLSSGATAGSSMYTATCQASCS

Compound	pEC50
COC1(C(=O)Nc2ccc3c(c2)nc(CN2CCC(c4cccc(OCc5ccc(Cl)cc5F)n4)CC2)n3C[C@@H]2CCO2)CCCOC1 (stereo partly drawn) [Compound 196a, N-{2-[(4-{6-[(4-chloro-2-fluorophenyl)methoxy]pyridin-2-yl}piperidin-1-yl)methyl]-1-{[(2S)-oxetan-2-yl]methyl}-1H-1,3-benzodiazol-5-yl}-3-methoxyoxane-3-carboxamide]	8.96
O=C(CC1CC1)Nc1ccc2c(c1)nc(CN1CCC(c3cccc(OCc4ccc(Cl)cc4F)n3)CC1)n2C[C@@H]1CCO1 [Compound 106a, (S)—N-(2-((4-(6-((4-chloro-2-fluorobenzyl)oxy)pyridin-2-yl)piperidin-1-yl)methyl)-1-(oxetan-2-ylmethyl)-1H-benzo[d]imidazol-5-yl)-2-cyclopropylacetamide]	8.92
O=c1[nH]ccn1-c1ccc2c(c1)nc(CN1CCC(c3cccc(OCc4ccc(Cl)cc4F)n3)CC1)n2C[C@@H]1CCO1 [Compound 122a, 1-{2-[(4-{6-[(4-chloro-2-fluorophenyl)methoxy]pyridin-2-yl}piperidin-1-yl)methyl]-1-{[(2S)-oxetan-2-yl]methyl}-1H-1,3-benzodiazol-5-yl}-2,3-dihydro-1H-imidazol-2-one]	8.62
CC1(c2ccc(Cl)cc2F)Oc2cccc(C3CCN(Cc4nc5cc(-c6noc(=O)[nH]6)cnc5n4C[C@H]4CCCO4)CC3)c2O1 (stereo partly drawn) [Compound 399a, 3-[2-({4-[2-(4-chloro-2-fluorophenyl)-2-methyl-2H-1,3-benzodioxol-4-yl]piperidin-1-yl}methyl)-3-{[(2R)-oxolan-2-yl]methyl}-3H-imidazo[4,5-b]pyridin-6-yl]-4,5-dihydro-1,2,4-oxadiazol-5-one]	7.77
N#Cc1ccc(COc2cc(C3=CCN(Cc4nc5cc(-c6noc(=O)[nH]6)cnc5n4C[C@@H]4CCO4)CC3)ccc2F)c(F)c1 [Compound 295a, 3-fluoro-4-[(2-fluoro-5-{1-[(3-{[(2S)-oxetan-2-yl]methyl}-6-(5-oxo-4,5-dihydro-1,2,4-oxadiazol-3-yl)-3H-imidazo[4,5-b]pyridin-2-yl)methyl]-1,2,3,6-tetrahydropyridin-4-yl}phenoxy)methyl]benzonitrile]	8.59
CC1(c2ccc(Cl)cc2F)Oc2cccc(C3CCN(Cc4nc5cc(-c6nnc(C(F)(F)F)[nH]6)cnc5n4C[C@H]4CCCO4)CC3)c2O1 (stereo partly drawn) [Compound 245a, 4-[2-(4-chloro-2-fluorophenyl)-2-methyl-2H-1,3-benzodioxol-4-yl]-1-[(3-{[(2R)-oxolan-2-yl]methyl}-6-[5-(trifluoromethyl)-4H-1,2,4-triazol-3-yl]-3H-imidazo[4,5-b]pyridin-2-yl)methyl]piperidine]	8.59
C[C@]1(c2ccc(Cl)cn2)Oc2cccc(C3CCN(Cc4nc5cc(C(=O)O)nnc5n4C[C@@H]4CCO4)CC3)c2O1 [Compound 464a, 6-({4-[(2S)-2-(5-chloropyridin-2-yl)-2-methyl-2H-1,3-benzodioxol-4-yl]piperidin-1-yl}methyl)-7-{[(2S)-oxetan-2-yl]methyl}-7H-imidazo[4,5-c]pyridazine-3-carboxylic acid]	9.12
O=S1(=O)CCCN1c1ccc2c(c1)nc(CN1CCC(c3cccc(OCc4ccc(Cl)cc4F)n3)CC1)n2C[C@@H]1CCO1 [Compound 118a, (S)-2-(2-((4-(6-((4-chloro-2-fluorobenzyl)oxy)pyridin-2-yl)piperidin-1-yl)methyl)-1-(oxetan-2-ylmethyl)-1H-benzo[d]imidazol-5-yl)isothiazolidine 1,1-dioxide]	8.00
O=C(Nc1ccc2c(c1)nc(CN1CCC(c3cccc(OCc4ccc(Cl)cc4F)n3)CC1)n2C[C@@H]1CCO1)C1CCCNC1 (stereo partly drawn) [Compound 203a, N-{2-[(4-{6-[(4-chloro-2-fluorophenyl)methoxy]pyridin-2-yl}piperidin-1-yl)methyl]-1-{[(2S)-oxetan-2-yl]methyl}-1H-1,3-benzodiazol-5-yl}piperidine-3-carboxamide]	8.49
CC1(c2ccc(Cl)cc2F)Oc2cccc(C3CCN(Cc4nc5cc(-c6nnc(C(F)(F)F)[nH]6)cnc5n4C[C@@H]4CCO4)CC3)c2O1 (single isomer, unassigned) [Compound 224b]	8.77

These reach a higher pEC50. Values come first.

pEC50	Compound
10.08	Fc1cc(Cl)ccc1COc1cccc(N2CCN(Cc3nc4cc(-c5nnc(C(F)(F)F)[nH]5)nnc4n3C[C@@H]3CCO3)CC2)n1 [Compound 492a, 1-{6-[(4-chloro-2-fluorophenyl)methoxy]pyridin-2-yl}-4-[(7-{[(2S)-oxetan-2-yl]methyl}-3-[5-(trifluoromethyl)-4H-1,2,4-triazol-3-yl]-7H-imidazo[4,5-c]pyridazin-6-yl)methyl]piperazine]
9.51	O=C(Nc1ccc2c(c1)nc(CN1CCC(c3cccc(OCc4ccc(Cl)cc4F)n3)CC1)n2C[C@@H]1CCO1)C1CC1 [Compound 103a, (S)—N-(2-((4-(6-((4-chloro-2-fluorobenzyl)oxy)pyridin-2-yl)piperidin-1-yl)methyl)-1-(oxetan-2-ylmethyl)-1H-benzo[d]imidazol-5-yl)cyclopropanecarboxamide]
10.19	CC1(c2ccc(Cl)cc2)Oc2cccc(C3CCN(Cc4nc5cc(-c6nnc(C(F)(F)F)[nH]6)cnc5n4C[C@@H]4CCO4)CC3)c2O1 (stereo partly drawn) [Compound 225a, 4-[2-(4-chlorophenyl)-2-methyl-2H-1,3-benzodioxol-4-yl]-1-[(3-{[(2S)-oxetan-2-yl]methyl}-6-[5-(trifluoromethyl)-4H-1,2,4-triazol-3-yl]-3H-imidazo[4,5-b]pyridin-2-yl)methyl]piperidine]
10.74	Fc1cc(Cl)ccc1COc1nc(N2CCN(Cc3nc4cc(-c5nnc(C(F)(F)F)[nH]5)cnc4n3C[C@@H]3CCO3)CC2)ccc1F [Compound 516a, 1-{6-[(4-chloro-2-fluorophenyl)methoxy]-5-fluoropyridin-2-yl}-4-[(3-{[(2S)-oxetan-2-yl]methyl}-6-[5-(trifluoromethyl)-4H-1,2,4-triazol-3-yl]-3H-imidazo[4,5-b]pyridin-2-yl)methyl]piperazine]
9.96	C[C@]1(c2ccc(Cl)cc2F)Oc2cccc(C3CCN(Cc4nc5cc(C(=O)O)nnc5n4C[C@@H]4CCO4)CC3)c2O1 [Compound 431a, 6-({4-[(2S)-2-(4-chloro-2-fluorophenyl)-2-methyl-2H-1,3-benzodioxol-4-yl]piperidin-1-yl}methyl)-7-{[(2S)-oxetan-2-yl]methyl}-7H-imidazo[4,5-c]pyridazine-3-carboxylic acid]
10.42	Fc1cc(Cl)ccc1COc1ccc(F)c(N2CCN(Cc3nc4cc(-c5nnc(C(F)(F)F)[nH]5)ncc4n3C[C@@H]3CCO3)CC2)n1 [Compound 501a, 1-{6-[(4-chloro-2-fluorophenyl)methoxy]-3-fluoropyridin-2-yl}-4-[(3-{[(2S)-oxetan-2-yl]methyl}-6-[5-(trifluoromethyl)-4H-1,2,4-triazol-3-yl]-3H-imidazo[4,5-c]pyridin-2-yl)methyl]piperazine]
9.60	C[C@H](Cn1c(CN2CCC(c3cccc4c3O[C@@](C)(c3ccc(Cl)cn3)O4)CC2)nc2cc(-c3nnc(C(F)(F)F)[nH]3)ncc21)OC(F)F [Compound 476a, 5-chloro-2-[(2S)-4-[1-({3-[(2R)-2-(difluoromethoxy)propyl]-6-[5-(trifluoromethyl)-4H-1,2,4-triazol-3-yl]-3H-imidazo[4,5-c]pyridin-2-yl}methyl)piperidin-4-yl]-2-methyl-2H-1,3-benzodioxol-2-yl]pyridine]
11.20	C[C@]1(c2ccc(Cl)cc2F)Oc2cccc(C3CCN(Cc4nc5cc(-c6noc(=O)[nH]6)ncc5n4C[C@@H]4CCO4)CC3)c2O1 [Compound 375a, 3-[2-({4-[(2S)-2-(4-chloro-2-fluorophenyl)-2-methyl-2H-1,3-benzodioxol-4-yl]piperidin-1-yl}methyl)-3-{[(2S)-oxetan-2-yl]methyl}-3H-imidazo[4,5-c]pyridin-6-yl]-4,5-dihydro-1,2,4-oxadiazol-5-one]
10.36	N#Cc1ccc(COc2cccc(N3CCN(Cc4nc5cc(-c6nnc(C(F)(F)F)[nH]6)nnc5n4C[C@@H]4CCO4)CC3)n2)c(F)c1 [Compound 493a, 3-fluoro-4-{[(6-{4-[(7-{[(2S)-oxetan-2-yl]methyl}-3-[5-(trifluoromethyl)-4H-1,2,4-triazol-3-yl]-7H-imidazo[4,5-c]pyridazin-6-yl)methyl]piperazin-1-yl}pyridin-2-yl)oxy]methyl}benzonitrile]
9.68	CO[C@@H](C)Cn1c(CN2CCC(c3cccc4c3O[C@@](C)(c3ccc(Cl)cc3F)O4)CC2)nc2cc(-c3nnc(C(F)(F)F)[nH]3)ncc21 [Compound 420a, 4-[(2S)-2-(4-chloro-2-fluorophenyl)-2-methyl-2H-1,3-benzodioxol-4-yl]-1-({3-[(2S)-2-methoxypropyl]-6-[5-(trifluoromethyl)-4H-1,2,4-triazol-3-yl]-3H-imidazo[4,5-c]pyridin-2-yl}methyl)piperidine]
9.33	O=C(Nc1ccc2c(c1)nc(CN1CCC(c3cccc(OCc4ccc(Cl)cc4F)n3)CC1)n2C[C@@H]1CCO1)C(F)n1cccn1 (stereo partly drawn) [Compound 194a, N-{2-[(4-{6-[(4-chloro-2-fluorophenyl)methoxy]pyridin-2-yl}piperidin-1-yl)methyl]-1-{[(2S)-oxetan-2-yl]methyl}-1H-1,3-benzodiazol-5-yl}-2-fluoro-2-(1H-pyrazol-1-yl)acetamide]
